# Tests used:
# Format in all cases: cell-based
# Details in all cases: unsaturated fatty acid concentration of 200 µM, cells stimulated with known bitter agonist
# T2R71 (TAS2R41) = molecular target: T1, T2R71 (TAS2R41) (Homo sapiens, UniProt P59536); experiment: FLIPR calcium assay, block of bitter agonist response, T2R71
# T1 construct: expressed in transfected cells; host or cells: cells expressing a promiscuous G protein (e.g., G16g44)
# T1 sequence (P59536 1-307): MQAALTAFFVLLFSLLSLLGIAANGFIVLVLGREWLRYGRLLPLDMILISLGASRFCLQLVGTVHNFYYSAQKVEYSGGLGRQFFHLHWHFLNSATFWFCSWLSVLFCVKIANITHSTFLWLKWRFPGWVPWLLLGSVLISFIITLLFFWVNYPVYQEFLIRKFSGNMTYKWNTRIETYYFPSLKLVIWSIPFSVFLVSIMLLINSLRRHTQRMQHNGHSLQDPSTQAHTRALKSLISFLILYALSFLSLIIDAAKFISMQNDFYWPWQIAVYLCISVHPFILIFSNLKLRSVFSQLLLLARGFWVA
# Experimental: (§1) Cells expressing a promiscuous […] (e.g., G16g44) were transfected with vectors encoding 18 functional bitter receptor cDNAs, with one receptor per transfection. The cells were transfected directly in 384-well format high-density plates and incubated for 28 hours. Later, cells were loaded with the Ca-specific dye Fluo4-AM. After an incubation of 60 minutes, excess dye is washed off, and cells are stimulated with a known bitter agonist for each receptor and various unsaturated fatty acids. Changes in intracellular fluorescence are recorded using a FLIPR instrument. Bitter antagonists and corresponding receptors are identified based on percentage inhibition of agonist's activity on a given receptor.
# (§2) The above protocol was carried out using 16 different unsaturated fatty acids. A particular T2R receptor was identified as being antagonized by a particular unsaturated fatty acid if it triggered a >25% block of agonist's cellular response at 200 μM concentration of unsaturated fatty acid. […] Table 2 indicates the sixteen (16) compounds tested by their compound number from Table 1 above. The 18 bitter taste receptors screened are the human bitter taste receptors we named. […]
# T2R63 (TA2R20) = molecular target: T2, T2R63 (TA2R20) (Homo sapiens, UniProt P59543); experiment: FLIPR calcium assay, block of bitter agonist response, T2R63
# T2 construct: expressed in transfected cells; host or cells: cells expressing a promiscuous G protein (e.g., G16g44)
# T2 sequence (P59543 1-309): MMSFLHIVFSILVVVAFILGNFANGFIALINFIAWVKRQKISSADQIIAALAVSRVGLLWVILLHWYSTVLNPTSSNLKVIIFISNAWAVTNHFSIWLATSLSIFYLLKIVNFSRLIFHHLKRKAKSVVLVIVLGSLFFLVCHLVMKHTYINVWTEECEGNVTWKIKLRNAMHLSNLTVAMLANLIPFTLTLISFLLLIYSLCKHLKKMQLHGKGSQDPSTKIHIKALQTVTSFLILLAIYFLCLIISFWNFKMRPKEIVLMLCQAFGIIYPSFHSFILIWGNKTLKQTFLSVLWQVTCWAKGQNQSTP
# Experimental: as §1, §2
# T2R16 (TAS2R16) = molecular target: T3, T2R16 (TAS2R16) (Homo sapiens, UniProt Q9NYV7); experiment: FLIPR calcium assay, block of bitter agonist response, T2R16
# T3 construct: expressed in transfected cells; host or cells: cells expressing a promiscuous G protein (e.g., G16g44)
# T3 sequence (Q9NYV7 1-291): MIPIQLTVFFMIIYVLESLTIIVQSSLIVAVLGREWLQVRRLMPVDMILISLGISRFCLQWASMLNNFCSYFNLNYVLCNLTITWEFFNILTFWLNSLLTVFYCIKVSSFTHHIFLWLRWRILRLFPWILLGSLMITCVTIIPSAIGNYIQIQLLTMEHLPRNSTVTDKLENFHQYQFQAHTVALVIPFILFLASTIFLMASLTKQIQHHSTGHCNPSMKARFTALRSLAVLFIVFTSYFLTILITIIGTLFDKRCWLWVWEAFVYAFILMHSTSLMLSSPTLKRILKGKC
# Experimental: as §1, §2
# T2R67 (TAS2R50) = molecular target: T4, T2R67 (TAS2R50) (Homo sapiens, UniProt P59544); experiment: FLIPR calcium assay, block of bitter agonist response, T2R67
# T4 construct: expressed in transfected cells; host or cells: cells expressing a promiscuous G protein (e.g., G16g44)
# T4 sequence (P59544 1-299): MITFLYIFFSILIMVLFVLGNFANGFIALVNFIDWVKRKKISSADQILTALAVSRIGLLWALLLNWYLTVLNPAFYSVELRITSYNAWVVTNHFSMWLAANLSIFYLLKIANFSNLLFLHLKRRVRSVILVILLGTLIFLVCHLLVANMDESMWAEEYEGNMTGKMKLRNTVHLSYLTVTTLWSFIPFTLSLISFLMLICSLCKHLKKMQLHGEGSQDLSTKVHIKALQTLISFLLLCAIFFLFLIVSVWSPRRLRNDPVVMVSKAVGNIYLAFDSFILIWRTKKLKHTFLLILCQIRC
# Experimental: as §1, §2
# T2R61 (TAS2R43) = molecular target: T5, T2R61 (TAS2R43) (Homo sapiens, UniProt P59537); experiment: FLIPR calcium assay, block of bitter agonist response, T2R61
# T5 construct: expressed in transfected cells; host or cells: cells expressing a promiscuous G protein (e.g., G16g44)
# T5 sequence (P59537 1-309): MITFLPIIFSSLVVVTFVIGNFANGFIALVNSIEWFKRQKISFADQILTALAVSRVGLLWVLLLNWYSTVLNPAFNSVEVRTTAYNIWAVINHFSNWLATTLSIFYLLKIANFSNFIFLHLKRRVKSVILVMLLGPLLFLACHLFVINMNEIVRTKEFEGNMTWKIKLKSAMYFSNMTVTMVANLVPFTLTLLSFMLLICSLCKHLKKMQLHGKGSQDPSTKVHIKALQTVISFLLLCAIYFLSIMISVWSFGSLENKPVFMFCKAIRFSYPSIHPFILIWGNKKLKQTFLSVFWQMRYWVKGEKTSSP
# Experimental: as §1, §2
# T2R03 (TAS2R03) = molecular target: T6, T2R03 (TAS2R03) (Homo sapiens, UniProt Q9NYW6); experiment: FLIPR calcium assay, block of bitter agonist response, T2R03
# T6 construct: expressed in transfected cells; host or cells: cells expressing a promiscuous G protein (e.g., G16g44)
# T6 sequence (Q9NYW6 1-316): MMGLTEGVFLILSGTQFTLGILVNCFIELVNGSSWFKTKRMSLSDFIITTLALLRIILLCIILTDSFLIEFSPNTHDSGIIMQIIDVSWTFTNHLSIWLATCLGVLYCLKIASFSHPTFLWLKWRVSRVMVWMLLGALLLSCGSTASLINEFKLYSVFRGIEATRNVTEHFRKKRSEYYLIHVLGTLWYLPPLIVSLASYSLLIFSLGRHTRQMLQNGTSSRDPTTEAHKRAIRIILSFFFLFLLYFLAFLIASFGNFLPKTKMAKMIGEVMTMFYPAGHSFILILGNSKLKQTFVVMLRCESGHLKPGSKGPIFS
# Experimental: as §1, §2
# T2R04 (TAS2R04) = molecular target: T7, T2R04 (TAS2R04) (Homo sapiens, UniProt Q9NYW5); experiment: FLIPR calcium assay, block of bitter agonist response, T2R04
# T7 construct: expressed in transfected cells; host or cells: cells expressing a promiscuous G protein (e.g., G16g44)
# T7 sequence (Q9NYW5 1-299): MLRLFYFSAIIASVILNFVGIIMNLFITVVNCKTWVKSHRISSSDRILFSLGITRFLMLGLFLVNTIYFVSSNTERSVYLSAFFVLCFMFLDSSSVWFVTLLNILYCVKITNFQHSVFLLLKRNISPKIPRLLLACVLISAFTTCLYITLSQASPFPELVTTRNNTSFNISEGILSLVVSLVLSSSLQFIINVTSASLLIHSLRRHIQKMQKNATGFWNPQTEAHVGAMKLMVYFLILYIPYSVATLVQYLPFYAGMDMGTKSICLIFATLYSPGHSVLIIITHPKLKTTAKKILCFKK
# Experimental: as §1, §2
# T2R13 (TAS2R13) = molecular target: T8, T2R13 (TAS2R13) (Homo sapiens, UniProt Q9NYV9); experiment: FLIPR calcium assay, block of bitter agonist response, T2R13
# T8 construct: expressed in transfected cells; host or cells: cells expressing a promiscuous G protein (e.g., G16g44)
# T8 sequence (Q9NYV9 1-303): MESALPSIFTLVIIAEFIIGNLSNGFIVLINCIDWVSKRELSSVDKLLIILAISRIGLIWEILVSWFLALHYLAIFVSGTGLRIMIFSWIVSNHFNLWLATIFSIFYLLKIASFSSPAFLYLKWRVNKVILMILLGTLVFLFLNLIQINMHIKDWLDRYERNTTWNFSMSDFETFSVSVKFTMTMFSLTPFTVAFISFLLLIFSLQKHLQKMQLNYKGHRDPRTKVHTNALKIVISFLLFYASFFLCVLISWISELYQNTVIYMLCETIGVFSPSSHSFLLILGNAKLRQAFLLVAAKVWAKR
# Experimental: as §1, §2
compound,measurement,setting,value
CCCCC/C=C/C(=O)O [Compound 103],"percentage block of cellular response over baseline, 71",T2R71 (TAS2R41),>30%
same,"percentage block of cellular response over baseline, 63",T2R63 (TA2R20),30%
same,"percentage block of cellular response over baseline, 16",T2R16 (TAS2R16),>25%
same,"percentage block of cellular response over baseline, 67",T2R67 (TAS2R50),30%
same,"percentage block of cellular response over baseline, 61",T2R61 (TAS2R43),>85%
same,"percentage block of cellular response over baseline, 03",T2R03 (TAS2R03),>30%
same,"percentage block of cellular response over baseline, 04",T2R04 (TAS2R04),>99%
same,"percentage block of cellular response over baseline, 13",T2R13 (TAS2R13),>30%

# From patent publication US20250344734A1, “UNSATURATED FATTY ACIDS AND THEIR USE TO MODIFY TASTE” (Firmenich Incorporated, priority 2022, published 2025)
